Experimental data reported in US20160115186A1, “PHOSPHORIC ACID/PHOSPHONIC ACID DERIVATIVES AND MEDICINAL USES THEREOF” (priority 2013, published 2016).
Read-outs that look alike come from different tables or passages of the source.

What was measured:
in vitro = assay type: cell-based; conditions: human; Hep G 2.2.15 cells, MTT, day 3 post-dosing
Description: Hep G 2.2.15 cells were inoculated in a 96-well plate (with cell number being 5.5×10^4) to continually cultivate for 3 days, new culture solutions containing different concentrations of drugs were added, and 3 wells were provided in parallel; at day 3 post-dosing, MTT was added until 7.5 mg/ml, and continued to cultivate for 2 hours, the supernate was discarded, isopropanol containing 10% […] was added, 120 μl/well, and 0.4 μl/well was further added.

[1] = tested on: liver damage in mice caused by CCl4; assay type: in vivo, Kunmin mice; conditions: serum, CCl4 model, 0.2 mmol oral twice, 24 hours after second administration
Description: Kunmin mice (20 g) were grouped randomly (8/group). 0.2 mmol of a compound to be tested was orally administered; after 1 hour post-dosing, a 0.1% peanut oil solution of CCl4 was subcutaneously injected (10 mL/kg), to prepare a liver damage model; the normal saline was injected as a normal control group. After modeling for 12 hours, 0.2 mmol of the compound to be tested was orally administrated again. After 24 hours from the second administration, blood samples were collected to take serum specimen so as to determine ALT, AST.

[2] = tested on: liver damage in mice caused by D-aminogalactose; assay type: in vivo, Kunmin mice; conditions: serum, D-aminogalactose 750 mg/kg model, 0.2 mmol oral twice, 24 hours after second administration
Description: Kunmin mice (20 g) were grouped randomly (8/group). 0.2 mmol of a compound to be tested was orally administered; after 2 hours post-dosing, D-aminogalactose was intraperitoneally injected at a dose of 750 mg/kg to prepare a liver damage model, and the normal saline was subcutaneously injected as a normal control group. After modeling for 12 hours, 0.2 mmol of the compound to be tested was orally administrated again. After 24 hours from the second administration, blood samples were collected to take serum specimen so as to determine ALT, AST.

DHBV = test: animal or person; assay type: in vivo, sheldrakes; conditions: Duck hepatitis B virus, po, 336 h, serum DHBV DNA; for inhibition in vivo at 20 mg/kg: 20 mg/kg intragastric once a day for 14 days; for inhibition in vivo at 10 mg/kg: 10 mg/kg intragastric once a day for 14 days
Description: The sheldrakes infected by vertical transmission and being positive in DHBV DNA detection were grouped randomly, 5/group. Water and different doses of the compound to be tested were intragastrically administrated, respectively, once a day, for 14 days. Venous blood samples were collected pre-dosing, at day 14 of dosing and at day 7 after drug withdrawal, the serum DHBV DNA content was measured using external standard TaqMan real-time fluorescence PCR method, and the inhibition ratio was calculated, as compared to the solvent group.

HBV = test: microbe, parasite or virus in culture; assay type: cell-based; conditions: Hepatitis B virus, HepG2.2.15, 240 h; Hep G 2.2.15 cells, HBV DNA in supernate at day 10 post-dosing; read-out: IC50
Description: At day 10 post-dosing, 100 μl supernate was taken and the content of HBV DNA was measured by the method of Quantitative PCR to calculate IC50 value.

[3] = read-out: Inhibition ratio (%) Day 14 of dosing
[4] = read-out: Inhibition ratio (%) day 7 after drug withdrawal

C[C@H](Cn1cnc2c(N)ncnc21)OCP(=O)(Oc1cccc2c1OCO2)Oc1cccc2c1OCO2 [Compound I5, 9-[(R)-2-[[bis-((benzo[1,3]dioxolan-4-yl)-oxyl)-phosphonyl]-methoxyl]-propyl]-adenine]
CC50 at 3 days (in vitro): > 200 µM

COc1ccc(Sc2nc(N)nc3c2ncn3CCOCP(=O)(Oc2cccc3c2OCO3)Oc2cccc3c2OCO3)cc1 [Compound I7, 2-amino-6-(4-methoxylphenyl)thio-9-[[[bis-((benzo[1,3]dioxolan-4-yl)-oxyl)-phosphonyl]-methoxyl]-ethyl]-purine]
CC50 at 3 days (in vitro): > 200 µM

Cc1cc(OCP(=O)(Oc2ccc3c(c2)OCO3)Oc2ccc3c(c2)OCO3)cc(C)c1Cc1ccc(O)c(C(C)C)c1 [Compound I9, bis-(benzo[1,3]dioxolan-5-yl) [(3,5-dimethyl-4-(4′-hydroxyl-3′-isopropylbenzyl)phenoxyl)-methyl]-phosphonate]
CC50 at 3 days (in vitro): > 200 µM

CC(C)Cc1sc(N)nc1-c1ccc(P(=O)(Oc2ccc3c(c2)OCO3)Oc2ccc3c(c2)OCO3)o1 [Compound I10, bis-(benzo[1,3]dioxolan-5-yl) [5-[2-amino-5-(2-methylpropyl)-thiazol-4-yl]-furan-2-yl]-phosphonate]
CC50 at 3 days (in vitro): > 200 µM

C=C1[C@H](COP(=O)(Oc2ccc3c(c2)OCO3)Oc2ccc3c(c2)OCO3)[C@@H](O)C[C@@H]1n1cnc2c(OC)nc(N)nc21 [Compound I16, 2-amino-6-methoxyl-9-[(1S,3R,4S)-4-hydroxyl-3-(bis-(((benzo[1,3]dioxolan-5-yl)-oxyl)-phosphoryl)-oxymethyl)-2-methylenecyclopentyl]-purine]
CC50 at 3 days (in vitro): > 200 µM

C[C@@]1(F)[C@H](O)[C@@H](COP(=O)(Oc2ccc3c(c2)OCO3)Oc2ccc3c(c2)OCO3)O[C@H]1n1ccc(=O)[nH]c1=O [Compound I17, 5′-O-[bis-((benzo[1,3]dioxolan-5-yl)-oxyl)-phosphoryl]-β-D-2′-deoxy-2′-α-fluoro-2′-β-C-methyl uridine]
CC50 at 3 days (in vitro): > 200 µM

CCOC(=O)[C@@H](C)NP(=O)(CO[C@H](C)Cn1cnc2c(N)ncnc21)Oc1ccc2c(c1)OCO2 (stereo partly drawn) [Compound I20]
CC50 at 3 days (in vitro): 179 µM

CC(C)OC(=O)[C@@H](C)NP(=O)(CO[C@H](C)Cn1cnc2c(N)ncnc21)Oc1ccc2c(c1)OCO2 (stereo partly drawn) [Compound I21]
CC50 at 3 days (in vitro): > 200 µM

CC(C)C[C@@H](NP(=O)(CO[C@H](C)Cn1cnc2c(N)ncnc21)Oc1ccc2c(c1)OCO2)C(=O)OC(C)C (stereo partly drawn) [Compound I23]
CC50 at 3 days (in vitro): > 200 µM

C[C@H](Cn1cnc2c(N)ncnc21)OCP(=O)(N[C@H](C)C(=O)OC1CCCCC1)Oc1ccc2c(c1)OCO2 (stereo partly drawn) [Compound I25]
CC50 at 3 days (in vitro): > 200 µM

CCOC(=O)[C@H](C)N[P@](=O)(OC[C@H]1O[C@@H](n2ccc(=O)[nH]c2=O)[C@](C)(F)[C@@H]1O)Oc1ccc2c(c1)OCO2 [Compound I30]
CC50 (in vitro): > 200 µM

CC(C)OC(=O)[C@H](C)N[P@@](=O)(OC[C@H]1O[C@@H](n2ccc(=O)[nH]c2=O)[C@](C)(F)[C@@H]1O)Oc1ccc2c(c1)OCO2 [Compound I31-a]
ALT [1]: 507 U/L
AST [1]: 446 U/L
ALT [2]: 421 U/L
AST [2]: 253 U/L

CC(C)OC(=O)[C@H](C)N[P@](=O)(OC[C@H]1O[C@@H](n2ccc(=O)[nH]c2=O)[C@](C)(F)[C@@H]1O)Oc1ccc2c(c1)OCO2 [Compound I31-b]
ALT [1]: 205 U/L
AST [1]: 439 U/L
ALT [2]: 375 U/L
AST [2]: 751 U/L

CC(C)OC(=O)[C@H](C)NP(=O)(OC[C@H]1O[C@@H](n2ccc(=O)[nH]c2=O)[C@](C)(F)[C@@H]1O)Oc1ccc2c(c1)OCO2 (stereo partly drawn) [Compound I31]
CC50 (in vitro): > 200 µM

C[C@H](N[P@](=O)(OC[C@H]1O[C@@H](n2ccc(=O)[nH]c2=O)[C@](C)(F)[C@@H]1O)Oc1ccc2c(c1)OCO2)C(=O)OC1CCCCC1 [Compound I32]
CC50 (in vitro): > 200 µM

CCOC(=O)[C@H](C)N[P@](=O)(OC[C@H]1O[C@@H](n2cnc3c(OC)nc(N)nc32)[C@](C)(F)[C@@H]1O)Oc1ccc2c(c1)OCO2 [Compound I33]
CC50 (in vitro): > 200 µM

COc1nc(N)nc2c1ncn2[C@@H]1O[C@H](CO[P@](=O)(N[C@@H](C)C(=O)OC(C)C)Oc2ccc3c(c2)OCO3)[C@@H](O)[C@@]1(C)F [Compound I34-a]
ALT [1]: 293 U/L
AST [1]: 763 U/L
ALT [2]: 131 U/L
AST [2]: 282 U/L

COc1nc(N)nc2c1ncn2[C@@H]1O[C@H](CO[P@@](=O)(N[C@@H](C)C(=O)OC(C)C)Oc2ccc3c(c2)OCO3)[C@@H](O)[C@@]1(C)F [Compound I34-b]
ALT [1]: 289 U/L
AST [1]: 536 U/L
ALT [2]: 341 U/L
AST [2]: 194 U/L

COc1nc(N)nc2c1ncn2[C@@H]1O[C@H](COP(=O)(N[C@@H](C)C(=O)OC(C)C)Oc2ccc3c(c2)OCO3)[C@@H](O)[C@@]1(C)F (stereo partly drawn) [Compound I34]
CC50 (in vitro): > 200 µM

COc1nc(N)nc2c1ncn2[C@@H]1O[C@H](CO[P@@](=O)(N[C@@H](C)C(=O)OC2CCCCC2)Oc2ccc3c(c2)OCO3)[C@@H](O)[C@@]1(C)F [Compound I35]
CC50 (in vitro): > 200 µM

CC(C)OC(=O)[C@H](C)N[P@](=O)(OC[C@H]1O[C@@H](n2ccc(N)nc2=O)CS1)Oc1ccc2c(c1)OCO2 [Compound I36]
CC50 (in vitro): > 200 µM
ALT [1]: 490 U/L
AST [1]: 543 U/L
ALT [2]: 187 U/L
AST [2]: 113 U/L
inhibition in vivo at 20 mg/kg (DHBV; [3]): 92%
inhibition in vivo at 20 mg/kg (DHBV; [4]): 10.8%

COC(=O)[C@H](C)N[P@](=O)(OC[C@H]1O[C@@H](n2ccc(N)nc2=O)CS1)Oc1ccc2c(c1)OCO2 [Compound I37]
CC50 (in vitro): 193 µM
inhibition in vivo at 10 mg/kg (DHBV; [3]): 75.2%
inhibition in vivo at 10 mg/kg (DHBV; [4]): 9.4%

C=C1[C@H](COP(=O)(N[C@@H](C)C(=O)OC(C)C)Oc2cccc3c2OCO3)[C@@H](O)C[C@@H]1n1cnc2c(=O)[nH]c(N)nc21 (stereo partly drawn) [Compound I39, 9-[(1S,3R,4S)-4-hydroxyl-3-[(((benzo[1,3]dioxolan-4-yl)-oxyl)-1-isopropoxycarbonylethylamino-phosphoryl)-oxymethyl]-2-methylenecyclopentyl]-guanine]
CC50 (in vitro): 182 µM

C=C1[C@H](CO[P@](=O)(N[C@@H](C)C(=O)OC(C)C)Oc2cccc3c2OCO3)[C@@H](O)C[C@@H]1n1cnc2c(=O)[nH]c(N)nc21 [Compound I39-a]
IC50 (HBV): 0.017 µM

C=C1[C@H](CO[P@@](=O)(N[C@@H](C)C(=O)OC(C)C)Oc2cccc3c2OCO3)[C@@H](O)C[C@@H]1n1cnc2c(=O)[nH]c(N)nc21 [Compound I39-b]
IC50 (HBV): 0.065 µM

COc1nc(N)nc2c1ncn2[C@@H]1O[C@H](COP(=O)(N[C@@H](C)C(=O)OC(C)C)Oc2cccc3c2OCO3)[C@@H](O)[C@@]1(C)F (stereo partly drawn) [Compound I40]
CC50 (in vitro): > 200 µM

CC(C)OC(=O)[C@H](C)N[P@](=O)(OC[C@H]1O[C@@H](n2ccc(=O)[nH]c2=O)[C@](C)(F)[C@@H]1O)Oc1ccccc1 [PSI-7977, 5′-[(S)-[[(S)-1-(isopropoxycarbonyl)-ethyl]-amino]-phenoxylphosphoryl]-β-D-2′-deoxy-2′-α-fluoro-2′-β-C-methyluridine, reference compound]
CC50 (in vitro): 178 µM
ALT [1]: 2324 U/L
AST [1]: 2538 U/L
ALT [2]: 1079 U/L
AST [2]: 1727 U/L

COc1nc(N)nc2c1ncn2[C@@H]1O[C@H](CO[P@@](=O)(N[C@@H](C)C(=O)OC(C)C)Oc2ccccc2)[C@@H](O)[C@@]1(C)F [PSI-353661, reference compound]
CC50 (in vitro): 149 µM
ALT [1]: 1669 U/L
AST [1]: 2312 U/L
ALT [2]: 1558 U/L
AST [2]: 1027 U/L

COC(=O)[C@@H](C)NP(=O)(OCCOCn1cnc2c(=O)[nH]c(N)nc21)Oc1ccccc1 (stereo partly drawn) [i-3, reference compound]
CC50 (in vitro): 177 µM
ALT [1]: 231 U/L
AST [1]: 446 U/L
ALT [2]: 1150 U/L
AST [2]: 1419 U/L
inhibition in vivo at 20 mg/kg (DHBV; [3]): 56.6%
inhibition in vivo at 20 mg/kg (DHBV; [4]): 14.6%
